Assay results reported in paper PMC3152597 (Bioorganic & medicinal chemistry, 2011).
Entries after “also recorded” stand apart in the source; their conditions may differ.

Key:
[1] = system: two melanoma (A375, WM164) and four prostate cancer cell lines (LNCaP, PC-3, Du 145, PPC-1); experiment: Antiproliferative activity, all six cancer cell lines together; assay type: cell-based, human; conditions: for IC50: Homo sapiens, read-out: IC50 values (range over the cancer cell lines); for fold decrease in potency compared with parent compound: average IC50 versus parent ABI-I compound (1a, 1c)
DU145-TxR = experiment: Antiproliferative activity, paclitaxel-resistant DU145-TxR; assay type: cell-based, human
MDR cancer cell lines = experiment: Antiproliferative activity, MDR cancer cell lines; assay type: cell-based; conditions: Homo sapiens, read-out: potency on resistant (MDR) cancer cell lines (range)
[2] = system: nonresistant cancer cell lines; experiment: Antiproliferative activity, nonresistant cancer cell lines; assay type: cell-based; conditions: Homo sapiens, read-out: potency on nonresistant cancer cell lines (range)
PC-3-TxR = experiment: Antiproliferative activity, paclitaxel-resistant PC-3-TxR; assay type: cell-based, human; conditions: IC50 on PC-3-TxR divided by IC50 on PC-3
Bovine brain tubulin = experiment: In vitro microtubule polymerization assay; assay type: biochemical; conditions: after 15 min, absorbance at 340 nm, 37 °C
[3] = In vitro metabolic stability, human liver microsomes; conditions: 50 µM; LC-MS/MS metabolite identification
[4] = In vitro metabolic stability, mouse liver microsomes; conditions: 50 µM; LC-MS/MS metabolite identification
[5] = In vitro metabolic stability, rat liver microsomes; conditions: 50 µM; LC-MS/MS metabolite identification
[6] = In vitro metabolic stability, dog liver microsomes; assay type: in vitro ADME

SMILES: COc1cc(C(=O)c2cc3cc(F)ccc3[nH]2)cc(OC)c1OC [12f, (5-Fluoro-1H-indol-2-yl)(3,4,5-trimethoxyphenyl)methanone]
- IC50 [1]: 1 to 10 µM

SMILES: COc1cc(C(=O)c2c[nH]c(-c3ccc(Br)cc3)n2)cc(OC)c1OC [8a, (2-(4-Bromophenyl)-1H-imidazol-4-yl)(3,4,5-trimethoxyphenyl)methanone]
- Resistance index (R) DU145-TxR (DU145-TxR; IC50 on DU145-TxR divided by IC50 on Du145): ≈ 1
- IC50 (MDR cancer cell lines): 0.05 to 0.08 µM
- IC50 [2]: 0.05 to 0.08 µM
- Resistance index (R) PC-3-TxR (PC-3-TxR): ≈ 1
- inhibition of tubulin polymerization at 10 µM (Bovine brain tubulin; 10 µM): Complete inhibition
- inhibition of tubulin polymerization at 20 µM (Bovine brain tubulin): Complete inhibition

SMILES: COc1cc(C(=O)c2c[nH]c(-c3ccc(Cl)cc3)n2)cc(OC)c1O [2c, (2-(4-Chlorophenyl)-1H-imidazol-4-yl)(4-hydroxy-3,5-dimethoxyphenyl)methanone]
- fold decrease in potency compared with parent compound [1]: 10-to 20 fold

SMILES: CC(=O)O[C@H]1C(=O)[C@@]2(C)[C@H]([C@H](OC(=O)c3ccccc3)[C@]3(O)C[C@H](OC(=O)[C@H](O)[C@@H](NC(=O)c4ccccc4)c4ccccc4)C(C)=C1C3(C)C)[C@]1(OC(C)=O)CO[C@@H]1C[C@@H]2O [Paclitaxel, reference compound]
- IC50 (DU145-TxR; Homo sapiens, read-out: IC50±SEM DU145-TxR): > 3 µM
- IC50 (MDR cancer cell lines): > 0.4 µM

SMILES: COc1cc(C(=O)c2c[nH]c(-c3ccc(C)cc3)n2)cc(OC)c1O [2a, (4-Hydroxy-3,5-dimethoxyphenyl)(2-(p-tolyl)-1H-imidazol-4-yl)methanone]
- fold decrease in potency compared with parent compound [1]: 10-to 20 fold

SMILES: COc1cc(C(=O)c2cc3ccc(Cl)cc3n2C)cc(OC)c1OC [13aa, (6-Chloro-1-methyl-1H-indol-2-yl)(3,4,5-trimethoxyphenyl)methanone]
- IC50 [1]: 1 to 10 µM

SMILES: COc1cc(C(=O)c2cn(C)c(-c3ccc(C)cc3)n2)cc(OC)c1OC [3ab]
- metabolic pathway in human liver microsomes [3]: Hydroxylation on the para-methyl of the A ring was a major metabolic pathway; also recorded: Ketone reduction was only detected in human liver microsomes; also recorded: O-demethylation was a minor metabolic pathway
- metabolic pathway in mouse liver microsomes [4]: Hydroxylation on the para-methyl of the A ring was a major metabolic pathway; also recorded: O-demethylation was a minor metabolic pathway; also recorded: N-demethylation represented the major pathway
- metabolic pathway in rat liver microsomes [5]: N-demethylation represented the major pathway; also recorded: Hydroxylation on the para-methyl of the A ring was a major metabolic pathway; also recorded: O-demethylation was a minor metabolic pathway
- IC50 (MDR cancer cell lines): 0.05 to 0.08 µM
- IC50 [2]: 0.05 to 0.08 µM
- inhibition of tubulin polymerization at 20 µM (Bovine brain tubulin): Complete inhibition
- half-life in dog liver microsomes (in words) ([6]; 0.5 µM compound, 1 mg/mL microsomal protein, 37 °C): slightly longer half-life than that of compound 1a
- metabolic pathway in dog liver microsomes ([6]; 50 µM, LC-MS/MS metabolite identification): Hydroxylation on the para-methyl of the A ring was a major metabolic pathway; also recorded: O-demethylation was a minor metabolic pathway

SMILES: COc1cc(C(=O)c2cc3ccc(F)cc3n2C)cc(OC)c1OC [13b, (6-Fluoro-1-methyl-1H-indol-2-yl)(3,4,5-trimethoxyphenyl)methanone]
- IC50 [1]: 1 to 10 µM

SMILES: COc1cc(C(=O)c2cn(Cc3ccccc3)c(-c3ccc(C)cc3)n2)cc(OC)c1OC [3aa, (1-Benzyl-2-(p-tolyl)-1H-imidazol-4-yl)(3,4,5-trimethoxyphenyl)methanone]
- fold decrease in potency compared with parent compound [1]: 90 fold
